Assays:
Assay type in all cases: in vivo
kochia (Kochia scoparia) = experiment: Test C greenhouse herbicide test, postemergence
Summary of the method: (§1)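 Test chemicals were applied postemergence to greenhouse plants at the 1- to 4-leaf stage (2–18 cm tall) growing in peat/vermiculite medium. After 13–15 d, injury was rated visually against untreated controls on a 0–100 scale (0 = no effect, 100 = complete control).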

[1] = tested on: oat, wild (wild oat, Avena fatua); experiment: Test C greenhouse herbicide test, postemergence
Summary of the method: as §1

[2] = tested on: lambsquarters (Chenopodium album); experiment: Test C greenhouse herbicide test, pre- and postemergence
Description: (§2) Seeds of plant species selected from blackgrass (Alopecurus myosuroides), ryegrass, Italian (Italian ryegrass, Lolium multiflorum), wheat (winter wheat, Triticum aestivum), galium (catchweed bedstraw, Galium aparine), corn (Zea mays), large crabgrass, large (large crabgrass, Digitaria sanguinalis), foxtail, giant (giant foxtail, Setaria faberii), johnsongrass (Sorghum halepense), lambsquarters (Chenopodium album), morningglory (Ipomoea coccinea), nutsedge, yellow (yellow nutsedge, Cyperus esculentus), pigweed (Amaranthus retroflexus), ragweed (common ragweed, Ambrosia elatior), soybean (Glycine max), barnyardgrass (Echinochloa crus-galli), oilseed rape (Brassica napus), waterhemp (common waterhemp, Amaranthus rudis), and velvetleaf (Abutilon theophrasti) were planted into a blend of loam soil and sand and treated preemergence with test chemicals formulated in a non-phytotoxic solvent mixture which included a surfactant.
(§3) At the same time, plants selected from these crop and weed species and also chickweed (common chickweed, Stellaria media), kochia (Kochia scoparia), and oat, wild (wild oat, Avena fatua), were planted in pots containing Redi-Earth® planting medium (Scotts Company, 14111 Scottslawn Road, Marysville, Ohio 43041) comprising spaghnum peat moss, vermiculite, wetting agent and starter nutrients and treated with postemergence applications of test chemicals formulated in the same manner. Plants ranged in height from 2 to 18 cm (1- to 4-leaf stage) for postemergence treatments. Treated plants and controls were maintained in a greenhouse for 13 to 15 d, after which time all species were compared to controls and visually evaluated. Plant response ratings, summarized in Table C, are based on a scale of 0 to 100 where 0 is no effect and 100 is complete control. A dash (-) response means no test result.

[3] = tested on: morningglory (Ipomoea coccinea); experiment: as above
Description: as §2, §3

[4] = tested on: velvetleaf (Abutilon theophrasti); experiment: as above
Description: as §2, §3

[5] = tested on: johnsongrass (Sorghum halepense); experiment: as above
Description: as §2, §3

[6] = tested on: oilseed rape (Brassica napus); experiment: as above
Description: as §2, §3

[7] = tested on: nutsedge, yellow (yellow nutsedge, Cyperus esculentus); experiment: as above
Description: as §2, §3

[8] = tested on: crabgrass, large (large crabgrass, Digitaria sanguinalis); experiment: as above
Description: as §2, §3

[9] = tested on: pigweed (Amaranthus retroflexus); experiment: as above
Description: as §2, §3

corn (Zea mays) = experiment: as above
Description: as §2, §3

[10] = tested on: wheat (winter wheat, Triticum aestivum); experiment: as above
Description: as §2, §3

[11] = tested on: blackgrass (Alopecurus myosuroides); experiment: as above
Description: as §2, §3

[12] = tested on: foxtail, giant (giant foxtail, Setaria faberii); experiment: as above
Description: as §2, §3

[13] = tested on: barnyardgrass (Echinochloa crus-galli); experiment: as above
Description: as §2, §3

[14] = tested on: waterhemp (common waterhemp, Amaranthus rudis); experiment: as above
Description: as §2, §3

[15] = Postemergence, 31 g ai/ha, 0 to 100 scale (0 no effect, 100 complete control)
[16] = Postemergence, 125 g ai/ha, scale 0 to 100, 0 is no effect, 100 is complete control
[17] = Postemergence, 250 g ai/ha, scale 0 to 100, 0 no effect, 100 complete control, 13 to 15 d
[18] = postemergence, 62 g ai/ha, scale 0 to 100, 0 no effect, 100 complete control
[19] = Preemergence, 31 g ai/ha, scale 0 to 100, 0 is no effect, 100 is complete control
[20] = Preemergence, 62 g ai/ha, scale 0 to 100, 0 is no effect, 100 is complete control
[21] = Preemergence, 125 g ai/ha, scale 0 to 100, 0 is no effect, 100 is complete control
[22] = Preemergence, 250 g ai/ha, scale 0 to 100 (0 no effect, 100 complete control)

SMILES: CCC(=O)Oc1c(C)nn(C)c(=O)c1-c1c(C)sc2ccc(C)cc12 [Compound 42]
- Kochia plant response rating (kochia (Kochia scoparia); [15]): 90
- Plant response rating, Kochia (kochia (Kochia scoparia); [16]): 100
- Plant response rating, Kochia (kochia (Kochia scoparia); [17]): 100
- Kochia plant response rating (kochia (Kochia scoparia); [18]): 100
- Oat, Wild plant response rating [1, 15]: 75
- Plant response rating, Oat, Wild [1, 16]: 90
- Plant response rating, Oat, Wild [1, 17]: 95
- Oat, Wild plant response rating [1, 18]: 90
- Lambsquarters plant response rating [2, 15]: 85
- Plant response rating, Lambsquarters [2, 16]: 100
- Plant response rating, Lambsquarters [2, 17]: 98
- Plant response rating, Lambsquarters [2, 19]: 85
- Plant response rating, Lambsquarters [2, 20]: 80
- Plant response rating, Lambsquarters [2, 21]: 85
- Lambsquarters plant response rating [2, 22]: 90
- Lambsquarters plant response rating [2, 18]: 95
- Morningglory plant response rating [3, 15]: 75
- Plant response rating, Morningglory [3, 16]: 100
- Plant response rating, Morningglory [3, 17]: 100
- Plant response rating, Morningglory [3, 19]: 85
- Plant response rating, Morningglory [3, 20]: 98
- Plant response rating, Morningglory [3, 21]: 98
- Morningglory plant response rating [3, 22]: 98
- Morningglory plant response rating [3, 18]: 100
- Velvetleaf plant response rating [4, 15]: 45
- Plant response rating, Velvetleaf [4, 16]: 85
- Plant response rating, Velvetleaf [4, 17]: 95
- Plant response rating, Velvetleaf [4, 19]: 85
- Plant response rating, Velvetleaf [4, 20]: 90
- Plant response rating, Velvetleaf [4, 21]: 90
- Velvetleaf plant response rating [4, 22]: 98
- Velvetleaf plant response rating [4, 18]: 85
- Johnsongrass plant response rating [5, 15]: 5
- Plant response rating, Johnsongrass [5, 17]: 25
- Plant response rating, Johnsongrass [5, 19]: 0
- Plant response rating, Johnsongrass [5, 20]: 0
- Plant response rating, Johnsongrass [5, 21]: 5
- Johnsongrass plant response rating [5, 22]: 30
- Johnsongrass plant response rating [5, 18]: 5
- Oilseed Rape plant response rating [6, 15]: 0
- Plant response rating, Oilseed Rape [6, 16]: 10
- Plant response rating, Oilseed Rape [6, 17]: 0
- Plant response rating, Oilseed Rape [6, 19]: 0
- Plant response rating, Oilseed Rape [6, 20]: 0
- Plant response rating, Oilseed Rape [6, 21]: 5
- Oilseed Rape plant response rating [6, 22]: 20
- Oilseed Rape plant response rating [6, 18]: 5
- Nutsedge, Yellow plant response rating [7, 15]: 65
- Plant response rating, Nutsedge, Yellow [7, 17]: 95
- Plant response rating, Nutsedge, Yellow [7, 19]: 55
- Plant response rating, Nutsedge, Yellow [7, 20]: 60
- Plant response rating, Nutsedge, Yellow [7, 21]: 40
- Nutsedge, Yellow plant response rating [7, 22]: 80
- Nutsedge, Yellow plant response rating [7, 18]: 75
- Crabgrass, Large plant response rating [8, 15]: 10
- Plant response rating, Crabgrass, Large [8, 16]: 20
- Plant response rating, Crabgrass, Large [8, 17]: 20
- Plant response rating, Crabgrass, Large [8, 19]: 55
- Plant response rating, Crabgrass, Large [8, 20]: 70
- Plant response rating, Crabgrass, Large [8, 21]: 80
- Crabgrass, Large plant response rating [8, 22]: 85
- Crabgrass, Large plant response rating [8, 18]: 15
- Pigweed plant response rating [9, 15]: 85
- Plant response rating, Pigweed [9, 16]: 98
- Plant response rating, Pigweed [9, 17]: 98
- Plant response rating, Pigweed [9, 19]: 100
- Plant response rating, Pigweed [9, 20]: 100
- Plant response rating, Pigweed [9, 21]: 100
- Pigweed plant response rating [9, 22]: 100
- Pigweed plant response rating [9, 18]: 95
- Corn plant response rating (corn (Zea mays); [15]): 0
- Plant response rating, Corn (corn (Zea mays); [16]): 5
- Plant response rating, Corn (corn (Zea mays); [17]): 5
- Plant response rating, Corn (corn (Zea mays); [19]): 0
- Plant response rating, Corn (corn (Zea mays); [20]): 0
- Plant response rating, Corn (corn (Zea mays); [21]): 10
- Corn plant response rating (corn (Zea mays); [22]): 35
- Corn plant response rating (corn (Zea mays); [18]): 5
- Wheat plant response rating [10, 15]: 0
- Plant response rating, Wheat [10, 16]: 0
- Plant response rating, Wheat [10, 17]: 0
- Plant response rating, Wheat [10, 19]: 0
- Plant response rating, Wheat [10, 20]: 0
- Plant response rating, Wheat [10, 21]: 0
- Wheat plant response rating [10, 22]: 5
- Wheat plant response rating [10, 18]: 0
- Blackgrass plant response rating [11, 15]: 30
- Plant response rating, Blackgrass [11, 16]: 60
- Plant response rating, Blackgrass [11, 17]: 70
- Plant response rating, Blackgrass [11, 19]: 40
- Plant response rating, Blackgrass [11, 20]: 85
- Plant response rating, Blackgrass [11, 21]: 90
- Blackgrass plant response rating [11, 22]: 90
- Blackgrass plant response rating [11, 18]: 35
- Foxtail, Giant plant response rating [12, 15]: 25
- Plant response rating, Foxtail, Giant [12, 16]: 35
- Plant response rating, Foxtail, Giant [12, 17]: 80
- Plant response rating, Foxtail, Giant [12, 19]: 75
- Plant response rating, Foxtail, Giant [12, 20]: 80
- Plant response rating, Foxtail, Giant [12, 21]: 90
- Foxtail, Giant plant response rating [12, 22]: 100
- Foxtail, Giant plant response rating [12, 18]: 30
- Barnyardgrass plant response rating [13, 15]: 20
- Plant response rating, Barnyardgrass [13, 16]: 30
- Plant response rating, Barnyardgrass [13, 17]: 40
- Plant response rating, Barnyardgrass [13, 19]: 0
- Plant response rating, Barnyardgrass [13, 20]: 30
- Plant response rating, Barnyardgrass [13, 21]: 60
- Barnyardgrass plant response rating [13, 22]: 80
- Barnyardgrass plant response rating [13, 18]: 30
- Waterhemp plant response rating [14, 15]: 75
- Plant response rating, Waterhemp [14, 16]: 98
- Plant response rating, Waterhemp [14, 17]: 95
- Plant response rating, Waterhemp [14, 19]: 80
- Plant response rating, Waterhemp [14, 20]: 98
- Plant response rating, Waterhemp [14, 21]: 100
- Waterhemp plant response rating [14, 22]: 100
- Waterhemp plant response rating [14, 18]: 85

SMILES: Cc1cc(C)c2ccccc2c1-c1c(O)cnn(C)c1=O [Compound 51]
- Kochia plant response rating (kochia (Kochia scoparia); [15]): 0
- Plant response rating, Kochia (kochia (Kochia scoparia); [16]): 50
- Plant response rating, Kochia (kochia (Kochia scoparia); [17]): 75
- Kochia plant response rating (kochia (Kochia scoparia); [18]): 15
- Oat, Wild plant response rating [1, 15]: 0
- Plant response rating, Oat, Wild [1, 16]: 5
- Plant response rating, Oat, Wild [1, 17]: 10
- Oat, Wild plant response rating [1, 18]: 5
- Lambsquarters plant response rating [2, 15]: 5
- Plant response rating, Lambsquarters [2, 16]: 65
- Lambsquarters plant response rating [2, 18]: 50
- Morningglory plant response rating [3, 15]: 5
- Plant response rating, Morningglory [3, 16]: 75
- Plant response rating, Morningglory [3, 17]: 75
- Morningglory plant response rating [3, 18]: 55
- Velvetleaf plant response rating [4, 15]: 5
- Plant response rating, Velvetleaf [4, 16]: 50
- Plant response rating, Velvetleaf [4, 17]: 70
- Velvetleaf plant response rating [4, 18]: 20
- Johnsongrass plant response rating [5, 15]: 0
- Plant response rating, Johnsongrass [5, 16]: 0
- Plant response rating, Johnsongrass [5, 17]: 0
- Johnsongrass plant response rating [5, 18]: 0
- Oilseed Rape plant response rating [6, 15]: 0
- Plant response rating, Oilseed Rape [6, 16]: 5
- Plant response rating, Oilseed Rape [6, 17]: 5
- Oilseed Rape plant response rating [6, 18]: 5
- Nutsedge, Yellow plant response rating [7, 15]: 35
- Plant response rating, Nutsedge, Yellow [7, 16]: 85
- Plant response rating, Nutsedge, Yellow [7, 17]: 90
- Nutsedge, Yellow plant response rating [7, 18]: 70
- Crabgrass, Large plant response rating [8, 15]: 0
- Plant response rating, Crabgrass, Large [8, 16]: 10
- Plant response rating, Crabgrass, Large [8, 17]: 10
- Crabgrass, Large plant response rating [8, 18]: 5
- Pigweed plant response rating [9, 15]: 60
- Plant response rating, Pigweed [9, 16]: 70
- Plant response rating, Pigweed [9, 17]: 85
- Pigweed plant response rating [9, 18]: 65
- Corn plant response rating (corn (Zea mays); [15]): 0
- Plant response rating, Corn (corn (Zea mays); [16]): 0
- Plant response rating, Corn (corn (Zea mays); [17]): 0
- Corn plant response rating (corn (Zea mays); [18]): 0
- Wheat plant response rating [10, 15]: 0
- Plant response rating, Wheat [10, 16]: 0
- Plant response rating, Wheat [10, 17]: 0
- Wheat plant response rating [10, 18]: 0
- Blackgrass plant response rating [11, 15]: 0
- Plant response rating, Blackgrass [11, 16]: 0
- Plant response rating, Blackgrass [11, 17]: 10
- Blackgrass plant response rating [11, 18]: 0
- Foxtail, Giant plant response rating [12, 15]: 5
- Plant response rating, Foxtail, Giant [12, 16]: 15
- Plant response rating, Foxtail, Giant [12, 17]: 35
- Foxtail, Giant plant response rating [12, 18]: 5
- Barnyardgrass plant response rating [13, 15]: 5
- Plant response rating, Barnyardgrass [13, 16]: 10
- Plant response rating, Barnyardgrass [13, 17]: 20
- Barnyardgrass plant response rating [13, 18]: 5
- Waterhemp plant response rating [14, 15]: 30
- Plant response rating, Waterhemp [14, 16]: 80
- Waterhemp plant response rating [14, 18]: 50

— US10597388B2, “Pyridazinone herbicides” (FMC CORPORATION, priority 2014, dated 2020)
